≈ marks a conversion by molar mass, not a printed value. Calls of active or inactive are those of the source. The rule behind the calls is not given here.
Tests used:
Homo sapiens = species: Homo sapiens; assay: Selectivity ratio of Ki for human adenosine A1 receptor to Ki for human adenosine A2A receptor
Adenosine receptor A2a [1] = molecular target: T1, Adenosine receptor A2a (Homo sapiens, UniProt P29274); assay: Displacement of [3H][…] from human adenosine A2A receptor expressed in HEK293 cells; format: cell-based
T1 sequence (P29274 whole entry): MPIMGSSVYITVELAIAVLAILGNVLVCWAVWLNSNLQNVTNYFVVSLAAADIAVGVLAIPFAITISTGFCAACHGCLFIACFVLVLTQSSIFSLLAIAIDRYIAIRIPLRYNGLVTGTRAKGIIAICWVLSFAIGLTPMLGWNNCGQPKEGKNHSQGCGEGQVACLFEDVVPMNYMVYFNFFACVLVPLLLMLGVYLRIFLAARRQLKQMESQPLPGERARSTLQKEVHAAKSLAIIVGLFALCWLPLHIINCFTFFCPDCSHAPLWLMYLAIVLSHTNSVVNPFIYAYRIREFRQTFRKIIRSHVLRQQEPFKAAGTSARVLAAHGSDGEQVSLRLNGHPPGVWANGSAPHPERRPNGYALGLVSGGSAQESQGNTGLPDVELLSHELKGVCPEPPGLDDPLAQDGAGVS

Adenosine receptor A1 = molecular target: T2, Adenosine receptor A1 (Homo sapiens, UniProt P30542); assay: Displacement of [3H]DPCPX from human adenosine A1 receptor expressed in HEK293 cells; format: cell-based
T2 sequence (P30542 whole entry): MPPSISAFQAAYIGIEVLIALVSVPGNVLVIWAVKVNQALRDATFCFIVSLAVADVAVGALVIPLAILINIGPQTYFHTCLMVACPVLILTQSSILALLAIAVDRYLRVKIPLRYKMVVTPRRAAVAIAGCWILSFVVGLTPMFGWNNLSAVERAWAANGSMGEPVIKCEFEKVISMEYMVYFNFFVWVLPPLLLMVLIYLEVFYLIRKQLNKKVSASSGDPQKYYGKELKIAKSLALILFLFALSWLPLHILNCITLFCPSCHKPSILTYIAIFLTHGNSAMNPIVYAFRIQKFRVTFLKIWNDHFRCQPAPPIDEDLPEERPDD

Cytochrome P450 3A4 [2] = molecular target: T3, Cytochrome P450 3A4 (Homo sapiens, UniProt P08684)
T3 sequence (P08684 whole entry): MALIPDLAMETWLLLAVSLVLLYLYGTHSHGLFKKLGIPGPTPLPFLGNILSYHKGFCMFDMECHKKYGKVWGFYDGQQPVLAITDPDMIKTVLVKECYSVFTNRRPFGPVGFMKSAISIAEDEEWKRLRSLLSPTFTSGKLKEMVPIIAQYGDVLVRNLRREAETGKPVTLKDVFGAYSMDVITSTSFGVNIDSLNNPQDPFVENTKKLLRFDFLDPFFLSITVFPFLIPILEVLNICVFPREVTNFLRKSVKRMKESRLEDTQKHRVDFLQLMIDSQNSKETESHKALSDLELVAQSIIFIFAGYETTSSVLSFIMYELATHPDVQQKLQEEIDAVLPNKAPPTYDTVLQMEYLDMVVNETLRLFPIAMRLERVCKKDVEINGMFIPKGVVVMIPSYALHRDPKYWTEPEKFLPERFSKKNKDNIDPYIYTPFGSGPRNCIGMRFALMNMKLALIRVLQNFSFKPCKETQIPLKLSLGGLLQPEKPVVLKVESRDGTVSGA
Description: Inhibition of CYP3A4 in human liver microsomes by LC-MS/MS analysis

[3] = Metabolic stability in rat liver microsomes assessed as intrinsic clearance by LC-MS/MS analysis; format: ADME, Microsome
[4] = Metabolic stability in human liver microsomes assessed as intrinsic clearance by LC-MS/MS analysis; format: ADME, Microsome
[5] = Drug concentration in rat brain at 10 mg/kg, po after 2 hrs; format: ADME, organism-based; set-up: dose 10 mg/kg, route oral; conditions: read-out: Drug uptake
[6] = Plasma concentration in rat at 10 mg/kg, po after 2 hrs; format: ADME, organism-based; set-up: dose 10 mg/kg, route oral
Rattus norvegicus [7] = species: Rattus norvegicus; assay: Inhibition of haloperidol-induced catalepsy in rat assessed as minimal effective dose; format: functional; conditions: read-out: MED
Adenosine receptor A2a [8] = molecular target: T1, Adenosine receptor A2a; assay: Antagonist activity at human adenosine A2A receptor expressed in CHO cells assessed as inhibition of CGS-21680-induced cAMP production; format: functional, cell-based
Adenosine receptor A2a [9] = molecular target: Adenosine receptor A2a (Rattus norvegicus, UniProt P30543); assay: Displacement of [3H][…] from rat adenosine A2A receptor expressed in CHO cells; format: cell-based
Chain of Adenosine receptor A2a (Rattus norvegicus, UniProt P30543) (P30543 whole entry): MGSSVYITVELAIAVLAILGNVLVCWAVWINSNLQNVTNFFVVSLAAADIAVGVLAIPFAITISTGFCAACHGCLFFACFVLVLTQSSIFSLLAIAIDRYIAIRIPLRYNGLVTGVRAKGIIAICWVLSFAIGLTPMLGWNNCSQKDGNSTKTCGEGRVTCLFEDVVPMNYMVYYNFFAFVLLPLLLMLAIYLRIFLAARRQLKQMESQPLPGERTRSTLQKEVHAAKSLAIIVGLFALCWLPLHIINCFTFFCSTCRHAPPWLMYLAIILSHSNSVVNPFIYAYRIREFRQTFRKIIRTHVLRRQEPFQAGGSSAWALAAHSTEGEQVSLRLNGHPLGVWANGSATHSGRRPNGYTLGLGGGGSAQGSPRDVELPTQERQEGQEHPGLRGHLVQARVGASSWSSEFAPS

[10] = Lipophilicity, log D at pH 7.4; format: physicochemical; conditions: buffer
[11] = Aqueous solubility in phosphate-buffered saline at pH 7.4; format: physicochemical
[12] = Permeability from apical to basolateral side of the human Caco-2 membrane by LC-MS/MS analysis; format: ADME, cell-based; conditions: read-out: permeability
Rattus norvegicus [13] = assay: Inhibition of haloperidol-induced catalepsy in rat at 30 mg/kg, po after 2 hrs; format: functional
Rattus norvegicus [14] = assay: Inhibition of haloperidol-induced catalepsy in rat at 10 mg/kg, po after 2 hrs; format: functional; set-up: scale not given: the % may be the effect or the level left
[15] = Dissociation constant, pKa of the compound; format: physicochemical
[16] = molecular target: Voltage-gated inwardly rectifying potassium channel KCNH2 (Homo sapiens, UniProt Q12809); assay: Inhibition of human ERG by electrophysiology assay
Chain of Voltage-gated inwardly rectifying potassium channel KCNH2 (Q12809 whole entry): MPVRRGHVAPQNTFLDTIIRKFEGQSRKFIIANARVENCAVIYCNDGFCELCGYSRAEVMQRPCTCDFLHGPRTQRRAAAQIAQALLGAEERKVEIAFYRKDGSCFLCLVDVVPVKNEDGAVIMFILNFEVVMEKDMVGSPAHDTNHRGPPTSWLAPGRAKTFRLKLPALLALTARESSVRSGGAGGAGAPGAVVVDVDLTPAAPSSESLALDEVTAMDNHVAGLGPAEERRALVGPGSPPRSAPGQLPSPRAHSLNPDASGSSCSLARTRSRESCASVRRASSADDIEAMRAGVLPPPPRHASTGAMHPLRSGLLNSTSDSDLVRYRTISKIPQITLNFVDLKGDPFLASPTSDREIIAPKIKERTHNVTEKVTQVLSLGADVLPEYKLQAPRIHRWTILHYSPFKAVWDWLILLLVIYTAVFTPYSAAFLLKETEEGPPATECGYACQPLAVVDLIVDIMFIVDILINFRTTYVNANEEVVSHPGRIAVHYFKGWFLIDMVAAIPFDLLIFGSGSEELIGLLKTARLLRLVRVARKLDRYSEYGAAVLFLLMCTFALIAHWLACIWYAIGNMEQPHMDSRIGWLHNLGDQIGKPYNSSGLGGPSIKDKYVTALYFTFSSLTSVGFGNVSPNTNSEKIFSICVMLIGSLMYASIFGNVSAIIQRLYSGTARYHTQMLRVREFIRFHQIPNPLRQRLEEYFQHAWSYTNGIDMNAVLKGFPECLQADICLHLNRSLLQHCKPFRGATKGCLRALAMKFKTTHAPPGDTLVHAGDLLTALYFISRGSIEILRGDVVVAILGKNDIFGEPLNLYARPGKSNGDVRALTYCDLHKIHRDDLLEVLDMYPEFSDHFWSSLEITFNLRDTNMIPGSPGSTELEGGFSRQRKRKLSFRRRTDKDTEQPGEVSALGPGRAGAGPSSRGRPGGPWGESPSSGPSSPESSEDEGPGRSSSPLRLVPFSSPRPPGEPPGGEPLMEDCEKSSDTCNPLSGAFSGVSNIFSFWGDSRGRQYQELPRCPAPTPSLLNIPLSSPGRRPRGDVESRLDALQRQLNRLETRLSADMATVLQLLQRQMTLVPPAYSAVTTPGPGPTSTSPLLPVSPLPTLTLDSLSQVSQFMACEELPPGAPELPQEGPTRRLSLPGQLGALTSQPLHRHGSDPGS

Cytochrome P450 3A4 [17] = molecular target: T3, Cytochrome P450 3A4; assay: Inhibition of recombinant CYP3A4-catalyzed dealkylation of BFC assessed as formation of 7HFC by microplate fluorescence technique; format: ADME; conditions: recombinant enzyme
[18] = Aqueous solubility at pH >= […]; format: physicochemical; conditions: buffer
Rattus norvegicus [19] = assay: Inhibition of haloperidol-induced catalepsy in rat at 1 mg/kg, po; format: functional, organism-based; set-up: dose 1 mg/kg
Rattus norvegicus [20] = assay: Inhibition of haloperidol-induced catalepsy in rat at 3 mg/kg, po; format: functional, organism-based; set-up: dose 3 mg/kg
[21] = AUC (0 to 24 hrs) in rat plasma at 10 mg/kg, po; format: ADME, organism-based; set-up: time < 24 hr, dose 10 mg/kg, route oral
Rattus norvegicus [22] = assay: Potentiation of L-dopa-induced rotational behavior in unilaterally 6-hydroxydopamine-lesioned po dosed Wistar rat pretreated 30 mins before L-dopa challenge measured over 5 hrs; format: functional, organism-based
Liver microsomes = assay: Induction of glutathione adducts formation in human liver microsomes; set-up: species or system Microsome
[23] = Solubility at pH 3.7; format: physicochemical; conditions: buffer
[24] = AUC ((0 to 24 hrs)) in mouse at 300 mg/kg, po; format: ADME, organism-based; set-up: time < 24 hr, dose 300 mg/kg, route oral; conditions: plasma
Rattus norvegicus [25] = assay: Potentiation of L-dopa-induced rotational behavior in unilaterally 6-hydroxydopamine-lesioned po dosed Wistar rat assessed as minimal effective dose pretreated 30 mins before L-dopa challenge measured over 5 hrs; format: functional; conditions: read-out: MED
[26] = AUC ((0 to 24 hrs)) in dog at 30 mg/kg, po; format: ADME, organism-based, Canis lupus familiaris; set-up: time < 24 hr, dose 30 mg/kg, route oral; conditions: plasma

| Structure (SMILES) | Ratio Ki (Homo sapiens) | Ki (Adenosine receptor A2a [1]) [nM] | Ki (Adenosine receptor A1) [nM] | IC50 (Cytochrome P450 3A4 [2]) [nM] | CLint scaled [3] [mL/min/kg] | CLint scaled [4] [mL/min/kg] | minimal effective dose (Rattus norvegicus [7]) [mg/kg] | IC50 (Adenosine receptor A2a [8]) [nM] | Ki (Adenosine receptor A2a [9]) [nM] | Activity (Rattus norvegicus [14]) [%] | also measured |
| --- | --- | --- | --- | --- | --- | --- | --- | --- | --- | --- | --- |
| COc1cccc(-c2cc(NC(C)=O)nc(-n3nc(C)cc3C)n2)c1 | 71 | 0.92 | 65 | 740 | – | – | – | – | – | – | – |
| CC(=O)Nc1cc(-c2cccc(N(C)C)n2)nc(-n2nc(C)cc2C)n1 | 133 | 0.61 | 81 | 25000 | 1600 | 54 | 30 | 156 | 20 | – | concentration at 2 h [5]: 180 ng/g; concentration at 2 h [6]: 290 ng/mL |
| COc1cccc(-c2cc(NC(C)=O)nc(-n3nc(C)cc3C)n2)c1F | 187 | 0.6 | 110 | > 20000 | 360 | 36 | – | 32 | 12 | – | logD [10]: 2; solubility [11]: 170 µg/mL (≈ 478 µM); Papp A→B [12]: 26 ×10⁻⁶ cm/s; Activity (Rattus norvegicus [13]): inactive |
| COC(=O)Nc1cc(-c2cncc(OC)c2)nc(-n2nc(C)cc2C)n1 | 106 | 7.4 | 780 | 16000 | 93 | 16 | 10 | 167 | 68 | 46 | – |
| CC(=O)Nc1cc(-c2cccc(N3CCOCC3)n2)nc(-n2nc(C)cc2C)n1 | 155 | 0.83 | 130 | > 20000 | 25 | 3 | 3 | 13 | 10 | 55 | pKa [15]: 2.9; Activity ([16]; human): Not Active; Activity (Cytochrome P450 3A4 [17]): Not Active; solubility [11]: 140 µg/mL (≈ 356 µM); concentration at 2 h [5]: 170 ng/g; concentration at 2 h [6]: 150 ng/mL |
| CCOC(=O)Nc1cc(-c2cncc(OC)c2)nc(-n2nc(C)cc2C)n1 | 79 | 7.8 | 620 | 20000 | 59 | 38 | – | 196 | 82 | – | Activity (Rattus norvegicus [13]): inactive |
| CC(=O)Nc1cc(-c2cccnc2)nc(-n2nc(C)cc2C)n1 | 18 | 120 | 2100 | > 20000 | – | – | – | – | – | – | – |
| CC(=O)Nc1cc(-c2ccncc2)nc(-n2nc(C)cc2C)n1 | 21 | 40 | 820 | 8500 | – | – | – | – | – | – | – |
| COc1cncc(-c2cc(NC(C)=O)nc(-n3nc(C)cc3C)n2)c1 | 82 | 2.3 | 190 | 18000 | 120 | 35 | 1 | 57 | 62 | 64 | solubility [18]: < 10 µg/mL; Activity (Rattus norvegicus [19]): Active; IC50 [16]: 24000 nM; Activity (Rattus norvegicus [20]): Active; AUC(0-t) at 24 h [21]: 1430 ng·h/mL |
| CC(=O)Nc1cc(-c2cccc(N3CCCC3)n2)nc(-n2nc(C)cc2C)n1 | 28 | 0.26 | 7.2 | > 20000 | – | – | – | – | – | – | – |
| COC1CCN(c2cccc(-c3cc(NC(C)=O)nc(-n4nc(C)cc4C)n3)n2)CC1 | – | 0.44 | 85 | – | 540 | 41 | 1 | – | – | 88 | Activity (Rattus norvegicus [22]): Dose-dependent effect; Activity (Rattus norvegicus [19]): Active; Activity (Liver microsomes): Not Active; solubility [23]: 1000 µg/mL (≈ 2370 µM); AUC(0-t) at 24 h [24]: 25700 ng·h/mL; minimal effective dose (Rattus norvegicus [25]): 3 mg/kg; AUC(0-t) at 24 h [26]: 3400 ng·h/mL |
| COC1CN(c2cccc(-c3cc(NC(C)=O)nc(-n4nc(C)cc4C)n3)n2)C1 | 72 | 0.47 | 34 | 11000 | 160 | 25 | – | 18 | 1.5 | – | pKa [15]: 3.4; logD [10]: 3.6; solubility [11]: 30 µg/mL (≈ 76.2 µM); concentration at 2 h [5]: 560 ng/g; concentration at 2 h [6]: 150 ng/mL |
| COc1cncc(-c2cc(NC(=O)CN3CCOCC3)nc(-n3nc(C)cc3C)n2)c1 | 235 | 4 | 940 | > 20000 | 150 | 3 | – | 49 | 30 | – | pKa [15]: 5.3; logD [10]: 2.4; Activity (Rattus norvegicus [13]): inactive |
